# Measured values: patent US20220213061A9, “HETEROCYCLIC COMPOUNDS FOR MODULATING NR2F6” (TES Pharma S.r.l., priority 2020, published 2022)
# Structures can show the parent of a compound that is named as a salt.
# Target: T1, recombinant human NR2F6 protein (Homo sapiens, UniProt P10588)
# T1 sequence (P10588 1-404): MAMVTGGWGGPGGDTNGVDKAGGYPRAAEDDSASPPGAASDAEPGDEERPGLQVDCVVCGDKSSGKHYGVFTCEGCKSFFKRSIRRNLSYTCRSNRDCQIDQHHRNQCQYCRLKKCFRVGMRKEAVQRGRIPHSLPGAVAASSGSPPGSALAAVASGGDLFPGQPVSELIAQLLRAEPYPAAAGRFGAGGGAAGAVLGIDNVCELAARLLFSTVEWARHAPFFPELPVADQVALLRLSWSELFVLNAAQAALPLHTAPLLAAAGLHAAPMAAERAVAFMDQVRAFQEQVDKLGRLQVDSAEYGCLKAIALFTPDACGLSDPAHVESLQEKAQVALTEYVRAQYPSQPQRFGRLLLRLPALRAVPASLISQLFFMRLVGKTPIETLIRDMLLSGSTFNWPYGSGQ
# Assay: Biochemical NR2F6 binding assay (EnSpire label-free)
# Details: label-free binding to immobilized purified recombinant human NR2F6; ligands 1 nM to 100 uM, 1% DMSO
# Description: Purified recombinant human NR2F6 protein was dissolved in immobilization buffer at pH 4.5 and then immobilized in EnSpire-LFB High-Sensitivity User-Activated Plates at the concentration of 50 μg/well plate and left in incubation for 16 h at 4° C. Wells with only immobilization buffer were used as negative control to check the protein coating efficiency. NR2F6 ligands were resuspended in DMSO at the concentration of 10 mM, then dispensed into a plate containing assay buffer at concentrations ranging from 1 nM to 100 uM using an HP-dispenser. DMSO was normalized at the 1% of volume of each well. The final readings were taken over a period of 30 minutes. The label-free responses were measured as shifts in reflected wavelength and are expressed in picometers (pm). Results were analyzed using the EnSpire label-free user interface software, and EC50 and graphs were generated using GraphPad PRISM software. In the tables below, A is <1 μM; B is 1 to 10 μM; C is 10 to 50 μM; and D is >50 μM.
row,SMILES,EC50 [µM]
1,"O=C(Nc1cccc(Oc2ccc(C(F)(F)F)nc2)c1)[C@@H]1CNC[C@H]1c1ccccc1 [Compound I-120, (3S,4R)-4-Phenyl-N-(3-{[6-(trifluoromethyl)pyridin-3-yl]oxy}phenyl) pyrrolidine-3-carboxamide dihydrochloride]",1 to 10
2,"O=C(Nc1cccc(Oc2ccccc2)c1)[C@H]1CNC[C@@H]1c1ccccc1 (racemic) [Compound I-69, (±)-trans-N-(3-Phenoxyphenyl)-4-phenylpyrrolidine-3-carboxamide hydrochloride]",< 1
3,"O=C(Nc1cccc2cnccc12)[C@@H]1CNC[C@@H]1c1ccccc1 [Compound I-66, (3S,4S)—N-(Isoquinolin-5-yl)-4-phenylpyrrolidine-3-carboxamide dihydrochloride]",> 50
4,"O=C(Nc1ccc(-c2cccnc2)cc1)[C@@H]1CNC[C@H]1c1ccccc1 [Compound I-41, (3S,4R)-4-Phenyl-N-[4-(pyridin-3-yl)phenyl]pyrrolidine-3-carboxamide dihydrochloride]",1 to 10
5,"O=C(Nc1cccc2ccccc12)[C@@H]1CNC[C@H]1c1ccccc1 (racemic) [Compound I-16, (±)-trans-N-(Naphthalen-1-yl)-4-phenylpyrrolidine-3-carboxamide hydrochloride]",1 to 10
6,"O=C(Nc1cccc(-c2ccccc2)c1)[C@@H]1CNC[C@H]1c1ccccc1 (racemic) [Compound I-13, (±)-trans-N-(Biphenyl-3-yl)-4-phenylpyrrolidine-3-carboxamide]",1 to 10
7,"O=C(Nc1cccc2ccccc12)[C@@H]1CNC[C@H]1c1ccc(C(F)(F)F)cc1 [Compound I-110, (3S,4R)—N-(Naphthalen-1-yl)-4-[4-(trifluoromethyl)phenyl]pyrrolidine-3-carboxamide hydrochloride]",1 to 10
8,"O=C(NCc1ccncc1)[C@H]1CNC[C@@H]1c1ccccc1 [Compound I-31, (3R,4S)-4-Phenyl-N-(pyridin-4-ylmethyl)pyrrolidine-3-carboxamide dihydrochloride]",1 to 10
9,"O=C(Nc1cccc2cnccc12)[C@H]1CNC[C@@H]1c1ccc(F)cc1 [Compound I-81, (3R,4S)-4-(4-Fluorophenyl)-N-(isoquinolin-5-yl)pyrrolidine-3-carboxamide dihydrochloride]",> 50
10,"c1ccc([C@H]2CNC[C@@H]2Oc2cccc3cnccc23)cc1 (racemic) [Compound I-64, 5-{[(±)-trans-4-Phenylpyrrolidin-3-yl]oxy}isoquinoline dihydrochloride]",1 to 10
11,"O=C(Nc1cccc(-c2cccnc2)c1)[C@H]1CNC[C@@H]1C1CCCCC1 (racemic) [Compound I-71, (±)-trans 4-Cyclohexyl-N-[3-(pyridin-3-yl)phenyl]pyrrolidine-3-carboxamide dihydrochloride]",1 to 10
12,"Cc1ccc(Oc2cccc(NC(=O)[C@H]3CNC[C@@H]3c3ccccc3)c2)cn1 (racemic) [Compound I-105, (±)-trans-4-Phenyl-N-{3-[(6-methylpyridin-3-yl)oxy]phenyl}pyrrolidine-3-carboxamide dihydrochloride]",1 to 10
13,"O=C(Nc1cccc(-c2ccccc2)c1)[C@@H]1CNC[C@H]1c1ccccc1 [Compound I-42, (3S,4R)—N-(Biphenyl-3-yl)-4-phenylpyrrolidine-3-carboxamide hydrochloride]",1 to 10
14,"O=C(Nc1cccc2cnccc12)[C@H]1CNC[C@@H]1c1cccs1 [Compound I-44, (3R,4R)—N-(Isoquinolin-5-yl)-4-(thiophen-2-yl)pyrrolidine-3-carboxamide dihydrochloride]",> 50
15,"O=C(Nc1cccc(Oc2ccccn2)c1)[C@H]1CNC[C@@H]1c1ccccc1 (racemic) [Compound I-99, (±)-trans-4-Phenyl-N-[3-(pyridin-2-yloxy)phenyl]pyrrolidine-3-carboxamide dihydrochloride]",> 50
16,"O=C(Nc1cccc(Oc2ccc(C(F)(F)F)nc2)c1)[C@H]1CNC[C@@H]1c1ccccc1 [Compound I-119, 3R,4S)-4-Phenyl-N-(3-{[6-(trifluoromethyl)pyridin-3-yl]oxy}phenyl) pyrrolidine-3-carboxamide dihydrochloride]",1 to 10
17,"O=C(Nc1ccc(Nc2cccnc2)cc1)[C@H]1CNC[C@@H]1c1ccccc1 (racemic) [Compound I-107, (±)-trans-4-Phenyl-N-[4-(pyridin-3-ylamino)phenyl]pyrrolidine-3-carboxamide dihydrochloride]",> 50

row,SMILES,EC50 [µM]
1,"O=C(Nc1cc2ccccc2cn1)[C@H]1CNC[C@@H]1c1ccccc1 [Compound I-38, (3R,4S)—N-(Isoquinolin-3-yl)-4-phenylpyrrolidine-3-carboxamide dihydrochloride]",1 to 10
2,"O=C(Nc1cccc(-c2cccnc2)c1)[C@@H]1CN(Cc2ccccc2)C[C@H]1c1ccccc1 (racemic) [Compound I-63, (±)-trans-1-Benzyl-4-phenyl-N-[3-(pyridin-3-yl)phenyl]pyrrolidine-3-carboxamide]",1 to 10
3,"O=C(Nc1cccc(-c2cccnc2)c1)[C@@H]1CNC[C@H]1c1cccs1 (racemic) [Compound I-49, (±)-trans-N-[3-(Pyridin-3-yl)phenyl]-4-(thiophen-2-yl)pyrrolidine-3-carboxamide dihydrochloride]",> 50
4,"O=C(N[C@H]1CC[C@H](O)CC1)[C@H]1CNC[C@@H]1c1ccccc1 [Compound I-36, (3R,4S)—N-[(1,4-trans)-4-Hydroxycyclohexyl]-4-phenylpyrrolidine-3-carboxamide hydrochloride]",> 50
5,"CN(C(=O)[C@@H]1CNC[C@H]1c1ccccc1)c1cccc(-c2cccnc2)c1 (racemic) [Compound I-47, (±)-trans-N-Methyl-4-phenyl-N-[3-(pyridin-3-yl)phenyl]pyrrolidine-3-carboxamide]",> 50
6,"O=C(NC1CCN(c2ccc(F)cc2)CC1)[C@@H]1CNC[C@H]1c1ccccc1 [Compound I-121, (3S,4R)-3-{[1-(4-Fluorophenyl)Ipiperidin-4-yl]carbamoyl]}-4-phenylpyrrolidine dihydrochloride]",1 to 10
7,"O=C(Nc1cccc(Nc2cccnc2)c1)[C@H]1CNC[C@@H]1c1ccccc1 (racemic) [Compound I-106, (±)-trans-4-Phenyl-N-[3-(pyridin-3-ylamino)phenyl]pyrrolidine-3-carboxamide dihydrochloride]",< 1
8,"O=C(N[C@H]1C[C@H](Oc2ccc(F)nc2)C1)[C@@H]1CNC[C@H]1c1ccccc1 (racemic) [Compound I-116, (±)-trans-N-{trans-3-[(6-Fluoropyridin-3-yl)oxy]cyclobutyl}-4-phenylpyrrolidine-3-carboxamide dihydrochloride]",10 to 50
9,"O=C(Nc1cccc2cnccc12)[C@@H]1CNC[C@H]1c1ccccc1 (racemic) [Compound I-21, (±)-trans-N-(Isoquinolin-5-yl)-4-phenylpyrrolidine-3-carboxamide dihydrochloride]",1 to 10
10,"O=C(Nc1cc2ccccc2cn1)[C@@H]1CNC[C@H]1c1ccccc1 [Compound I-43, (3S,4R)—N-(Isoquinolin-3-yl)-4-phenylpyrrolidine-3-carboxamide dihydrochloride]",1 to 10
11,"Cc1ccc(O[C@H]2C[C@H](NC(=O)[C@H]3CNC[C@@H]3c3ccccc3)C2)cn1 (racemic) [Compound I-102, (±)-trans-N-{trans-3-[(6-Methylpyridin-3-yl)oxy]cyclobutyl}-4-phenylpyrrolidine-3-carboxamide dihydrochloride]",1 to 10
12,"N#Cc1ccc(Oc2cccc(NC(=O)[C@@H]3CNC[C@H]3c3ccccc3)c2)cc1 [Compound I-112, (3S,4R)—N-[3-(4-Cyanophenoxy)phenyl]-4-phenylpyrrolidine-3-carboxamide hydrochloride]",< 1
13,"O=C(Nc1cccc(-c2ccccc2)c1)[C@H]1CNC[C@@H]1c1ccccc1 [Compound I-37, (3R,4S)—N-(Biphenyl-3-yl)-4-phenylpyrrolidine-3-carboxamide hydrochloride]",1 to 10
14,"O=C(NCc1cccc2cnccc12)[C@@H]1CNC[C@H]1c1ccccc1 [Compound I-95, (3S,4R)—N-(Isoquinolin-5-ylmethyl)-4-phenylpyrrolidine-3-carboxamide dihydrochloride]",1 to 10
15,"O=C(c1ccccc1)c1cccc(NC(=O)[C@H]2CNC[C@@H]2c2ccccc2)c1 (racemic) [Compound I-94, (±)-trans-4-Phenyl-N-[3-(phenylcarbonyl)phenyl]pyrrolidine-3-carboxamide hydrochloride]",1 to 10
16,"O=C(Nc1ccc(-c2cccnc2)cc1)[C@@H]1CNC[C@H]1c1ccccc1 (racemic) [Compound I-25, (±)-trans-4-Phenyl-N-[4-(pyridin-3-yl)phenyl]pyrrolidine-3-carboxamide dihydrochloride]",1 to 10
